From the supplement of paper PMC13380429

Columns and labels:
[1] = test system: A549-ACE2 infected with SARS-CoV-2; assay: cell count relative to DMSO; higher = less toxic; conditions: 24 h
Caco-2 [2] = assay: cell viability relative to DMSO; higher = less toxic; conditions: 72 h
Calu-3 [3] = assay: as above; conditions: 72 h
HepG2 [4] = assay: as above; conditions: 72 h
U2OS [5] = assay: as above; conditions: 72 h
Vero E6 [6] = assay: as above; conditions: 72 h
[7] = test system: A549-ACE2 infected with SARS-CoV-2; assay: SARS-CoV-2 infection rate relative to DMSO; higher = more infection; conditions: 24 h
A549-ACE2 [8] = assay: phospholipidosis EC50; higher = less potent phospholipidosis inducer
A549-ACE2 [9] = assay: drug-induced phospholipidosis relative to tamoxifen; higher = more phospholipidosis
[10] = test system: A549-ACE2 infected with SARS-CoV-2; assay: morphology score (similarity to uninfected cells); higher = more like uninfected cells; conditions: 24 h
HepG2 [11] = assay: relative viability EC50 (midpoint between 100% and the lowest measured viability); higher = less toxic; conditions: 72 h
U2OS [12] = assay: as above; conditions: 72 h
Caco-2 [13] = assay: drug sensitivity score (DSS) for viability; higher = more toxic; extreme values may be limits of the assay; conditions: 72 h
Calu-3 [14] = assay: as above; conditions: 72 h
HepG2 [15] = assay: as above; conditions: 72 h
U2OS [16] = assay: as above; conditions: 72 h
Vero E6 [17] = assay: as above; conditions: 72 h
Caco-2 [18] = assay: relative viability EC50 (midpoint between 100% and the lowest measured viability); higher = less toxic; conditions: 72 h
Calu-3 [19] = assay: as above; conditions: 72 h
Vero E6 [20] = assay: as above; conditions: 72 h

CCN1CCN(Cc2ccc(C(=O)Nc3ccc(C)c(Oc4ccc5c(c4)CC(=O)N5)c3)cc2C(F)(F)F)CC1 [DDR1-IN-1]
Conditions	SARS-CoV-2 infection rate [%]	cell count [%]	cell viability [%]	morphology score	phospholipidosis EC50 [µM]
A549-ACE2 [8], 24 h	–	–	–	–	1.39
A549-ACE2 [8], 48 h	–	–	–	–	3.2
A549-ACE2 [8], 72 h	–	–	–	–	4.19
Caco-2 [2], 1 nM	–	–	102	–	–
Caco-2 [2], 10 nM	–	–	94.8	–	–
Caco-2 [2], 100 nM	–	–	101	–	–
Caco-2 [2], 1000 nM	–	–	88.1	–	–
Caco-2 [2], 10000 nM	–	–	58	–	–
Calu-3 [3], 1 nM	–	–	97.2	–	–
Calu-3 [3], 10 nM	–	–	101	–	–
Calu-3 [3], 100 nM	–	–	99.2	–	–
Calu-3 [3], 1000 nM	–	–	104	–	–
Calu-3 [3], 10000 nM	–	–	50.3	–	–
HepG2 [4], 1 nM	–	–	96.5	–	–
HepG2 [4], 10 nM	–	–	91.4	–	–
HepG2 [4], 100 nM	–	–	90.3	–	–
HepG2 [4], 1000 nM	–	–	104	–	–
HepG2 [4], 10000 nM	–	–	42.5	–	–
U2OS [5], 1 nM	–	–	100	–	–
U2OS [5], 10 nM	–	–	98.2	–	–
U2OS [5], 100 nM	–	–	99.6	–	–
U2OS [5], 1000 nM	–	–	94.5	–	–
U2OS [5], 10000 nM	–	–	79.8	–	–
Vero E6 [6], 1 nM	–	–	97.4	–	–
Vero E6 [6], 10 nM	–	–	99.5	–	–
Vero E6 [6], 100 nM	–	–	100	–	–
Vero E6 [6], 1000 nM	–	–	100	–	–
Vero E6 [6], 10000 nM	–	–	72.9	–	–
[1], 0.1 µM	–	102	–	–	–
[1], 0.3 µM	–	104	–	–	–
[1], 1 µM	–	114	–	–	–
[1], 3 µM	–	121	–	–	–
[7], 0.1 µM	98	–	–	–	–
[7], 0.3 µM	96	–	–	–	–
[7], 1 µM	61	–	–	–	–
[7], 3 µM	26	–	–	–	–
[10], 0.1 µM	–	–	–	-0.13	–
[10], 0.3 µM	–	–	–	-0.1	–
[10], 1 µM	–	–	–	0.26	–
[10], 3 µM	–	–	–	0.78	–

drug-induced phospholipidosis [%], A549-ACE2 [9]
Conditions	0.3 µM	0.833333 µM	3.33333 µM	6.66667 µM	10 µM	30 µM
24 h	10.6	33.4	86.8	106	121	89.6
48 h	6.52	20.9	67.3	89.5	109	118
72 h	6.39	17.7	60.8	89.3	107	126

Conditions	drug sensitivity score	relative viability EC50 [µM]
Caco-2 [13]	3.9	–
Calu-3 [14]	2.3	–
HepG2 [11]	–	3.52
HepG2 [15]	2.8	–
U2OS [12]	–	> 10
U2OS [16]	1.3	–
Vero E6 [17]	1.1	–

CCCCCCCCCCC(O)C1C=CC2C(=O)N(c3ccccc3)C(=O)C2N1Nc1ccc([N+](=O)[O-])cc1 (stereo not given) [A12B4C3]
Conditions	SARS-CoV-2 infection rate, [7] [%]	cell count, [1] [%]	cell viability, Caco-2 [2] [%]	cell viability, Calu-3 [3] [%]	cell viability, HepG2 [4] [%]	cell viability, U2OS [5] [%]	cell viability, Vero E6 [6] [%]	morphology score, [10]
1 nM	–	–	96.6	98.9	96.9	97.8	93.1	–
10 nM	–	–	99	104	91.2	104	99.9	–
100 nM	–	–	85.9	98.4	99.2	95.5	98.3	–
0.3 µM	92	107	–	–	–	–	–	0.31
1000 nM	–	–	90	96.2	102	99	106	–
3 µM	95	105	–	–	–	–	–	0.4
10 µM	68	110	–	–	–	–	–	0.65
10000 nM	–	–	92	95.6	97.7	89	102	–
30 µM	37	104	–	–	–	–	–	0.6

drug-induced phospholipidosis [%], A549-ACE2 [9]
Conditions	0.3 µM	0.833333 µM	3.33333 µM	6.66667 µM	10 µM	30 µM
24 h	-2.18	-1.14	-1.42	-1.07	-2.23	12.3
48 h	0.96	-1.02	1.8	1.83	2.36	7.09
72 h	1.78	0.183	1.98	2.85	2.51	10.2

Conditions	drug sensitivity score	relative viability EC50 [µM]
Caco-2 [13]	0.2	–
Caco-2 [18]	–	> 10
Calu-3 [14]	0	–
Calu-3 [19]	–	> 10
HepG2 [11]	–	> 10
HepG2 [15]	0	–
U2OS [12]	–	> 10
U2OS [16]	0	–
Vero E6 [17]	0	–
Vero E6 [20]	–	> 10
